Experimental data: patent US7186756B2, “Steroid derivatives and use thereof as medicaments” (Inovat, priority 2003, dated 2007)

Tested on: bone cells (line UMR 106 or G 292)
Experiment: fixation of calcium in the extra cellular matrix of cultured bone cells (atomic spectrophotometry)
Type: cell-based
Conditions: for amount of fixed calcium in the extra cellular matrix of the osteoblasts: cells treated with 10 µg of calcium inhibitor, same conditions
Procedure: In the same conditions the cells are treated with 10 µg Verapamil or any other inhibitor of the calcium such as Cinchonine or Diltiazem.

Molecule	amount of fixed calcium in the extra cellular matrix of the osteoblasts	fixed calcium (10 ng of Maltadiolone, in comparison with the untreated control cells, line UMR 106 or G 292)	fixative activity on the calcium (cells treated with both 1 μg IL-1 and 10 μg Maltadiolone)	concentration from which recovery of the fixation of calcium on the extra cellular matrix may be detected (same conditions as previously (IL-1 treated cells))
C=C[C@H]1C[N@@]2CC[C@H]1C[C@@H]2[C@@H](O)c1ccnc2ccccc12 [Cinchonine]	equivalent to that of the cells treated with interleukin	–	–	–
COc1ccc(CCN(C)CCCC(C#N)(c2ccc(OC)c(OC)c2)C(C)C)cc1OC (stereo not drawn) [Verapamil]	equivalent to that of the cells treated with interleukin	–	–	–
2-oxo 3-hydroxy 25-ethylidene A-nor cholest-3-ene [Maltadiolone]	–	increase in the fixed calcium	restore a fixative activity on the calcium, equivalent to that of cells untreated with a calcium inhibitor	≥ 10 ng/mL
COc1ccc([C@@H]2Sc3ccccc3N(CCN(C)C)C(=O)[C@@H]2OC(C)=O)cc1 [Diltiazem]	equivalent to that of the cells treated with interleukin	–	–	–
